According to PMC7313430, “Heme-Dependent ER Stress Apoptosis: A Mechanism for the Selective Toxicity of the Dihydroartemisinin, NSC735847, in Colorectal Cancer Cells” (Frontiers in Oncology, 2020):

How the values were obtained:
FHC cells [1] = assay: MTS cell viability assay, non-tumorigenic colon cells; type: cell-based; settings: Homo sapiens, 24 h treatment
Description: The human colon cancer cell lines HT29 and HCT116 were cultured in McCoy's 5A medium (Sigma Aldrich, St. Louis, MO) containing 10% heat-inactivated fetal bovine serum (FBS), penicillin (100 units/ml), and streptomycin (100 μg/ml). The non-tumorigenic colon cell line, FHC, was cultured in DMEM: F12 (1:1) medium supplemented with 10% heat inactivated FBS, 25 mM HEPES (Thermo Fisher Scientific Inc., IL), 10 ng/ml cholera toxin (Sigma Aldrich, St. Louis, MO), 0.005 mg/ml insulin (Thermo Fisher Scientific Inc., IL), 0.005 mg/ml, transferrin (Sigma Aldrich, St. Louis, MO), 100 ng/ml hydrocortisone (Sigma Aldrich, St. Louis, MO), 20 ng/mL human recombinant epidermal growth factor (Thermo Fisher Scientific Inc., IL), 100 units/ml penicillin, and 100 μg/ml streptomycin.
Cells were cultured in 96-well-plates for 48 h before treatment. Serum-free media containing different agents was added to the cells at the concentration and time period described in the figure legend. MTS reagent (Promega, Madison, WI) was then added to each well and the absorbance was measured at 495 nm as directed by the manufacturer. In the presence of MTS reagent, the absorbance reading is proportional to the number of viable cells. The half-maximal inhibitory concentration (IC50) of the tested compounds is the concentration that reduces the viability of cells by 50%. IC50 was calculated after 24 h of treatment ([30], [31]) as described previously ([32]–[34]) from dose-response curves (log drug concentration vs. percentage viability from untreated cells) generated by non-linear regression analysis with GraphPad Prism 5 software (GraphPad Software, San Diego, California).

[2] = system: caspase 3/7 activity in HT29 cells; assay: Caspase-Glo 3/7 activity assay in HT29; type: cell-based, human; settings: 16 h, 1.25-10 μM
Description: The cells were plated in white-walled 96-well-plates and then they were cultured at 37°C for 48 h. Serum-free culture medium containing the appropriate concentration of different agents was added to the cells for the indicated period of time. Caspase-Glo 3/7 reagent (Promega, Madison, WI) was added to each well and luminescence was detected as directed by the manufacturer. The Caspase-Glo 3/7 kit measures the activity of the executioner caspases 3 and 7 using the luminogenic substrate (Z-DEVD-aminoluciferin) as substrate.

HT29 cells = assay: TUNEL assay in HT29; type: cell-based, human; settings: 5 or 10 μM, 16 h
Description: (§1) HT29, HCT116, and FHC cells were cultured in chamber slides and treated with 5 μM NSC735847, 10 μM NSC735847, or vehicle (0.1% DMSO). The cells were then washed with PBS and fixed in 4% paraformaldehyde before detection of double stranded DNA breaks that are characteristic of apoptosis. Terminal deoxynucleotidyl transferase dUTP nick end labeling (TUNEL) assays were performed as described by the manufacturer (in situ Cell Death Detection Kit; Roche; Indianapolis, IN). Briefly, fixed cells were incubated in permeabilization solution (0.1% Triton X-100 in 0.1% sodium citrate) for 2 min on ice. The slides were rinsed twice with PBS, 50 μL TUNEL reaction mixture was added, and then the samples were incubated for 1 h at 37°C in the dark. The slides were overlayed with antifade mounting medium containing DAPI and then visualized using a Zeiss LSM 700 confocal microscope system (Carl Zeiss Microscopy, LLC, White Plains, NY).

HCT116 cells = assay: TUNEL assay in HCT116; type: cell-based, human; settings: 5 or 10 μM, 16 h
Description: as §1

FHC cells [3] = assay: TUNEL assay in FHC; type: cell-based, human; settings: 5 or 10 μM, 16 h
Description: as §1

[4] = system: intracellular iron in HT29 cells; assay: Intracellular iron measurement (QuantiChrom kit); type: cell-based, human; settings: HT29, 10 μM, 4, 8 and 16 h
Description: HT29 cells were plated in 100 mm tissue culture plates for 48 h and then the cells were treated as indicated in the text. The cells were washed twice with PBS and then 100 μl triton lysis buffer (without EDTA) was added. The intracellular iron concentrations were determined using the QuantiChrom iron assay kit (BioAssay Systems; #ab83366) following the manufacturer's instructions. Briefly, iron standards of different concentrations were prepared by diluting the iron standard provided with the kit with distilled water. The diluted standards (50 μL) and sample cell lysates (50 μL) were transferred into a clear flat bottom 96-well-plate. Working reagent was prepared by mixing 20 volumes of reagent A, 1 volume reagent B and 1 volume reagent C provided with the kit. The working reagent (200 μL) was then added to the standard and sample wells. After mixing, the plate was incubated 40 min at room temperature and then the absorbance was measured at 590 nm. The iron concentration in each sample was calculated as described in the kit protocol.

Compound: CC1CCC2C(C)C(OCC(COC3OC4OC5(C)CCC6C(C)CCC(C3C)C46OO5)=NO)OC3OC4(C)CCC1C32OO4 (stereo not drawn) [compound (3)]
- IC50 (FHC cells [1]): > 25 µM
- caspase 3/7 activity in HT-29 [2]: significantly increased
- TUNEL positive cells in HT29 (HT29 cells): increased the quantity of TUNEL positive cells
- TUNEL positive cells in HCT-116 (HCT116 cells): increased the quantity of TUNEL positive cells
- TUNEL positive cells in FHC (FHC cells [3]): absent
- cellular free iron [4]: time-dependent increase in cellular free iron
